Calls of active or inactive are those of the source. No cut-off for these calls is given here.
Experiments:
Influenza A virus [1] = assay: Anti-influenza activity against influenza A virus H1NI (A/Virginia/ATCC2/2009) infected in dog MDCK cells incubated for 72 hrs by MTT assay; assay type: functional, organism-based; details: Influenza A virus, H1NI (A/Virginia/ATCC2/2009), MDCK, 72 h
Influenza A virus [2] = assay: Inhibition of influenza A virus infection induced apoptosis in MDCK cells infected with influenza virus assessed as necrotic cells at 50 uM incubated for 36 hrs by AnnexinV-FITC/PI staining based flow cytometry (reference value: 1.79%); assay type: functional; parameters: scale not given: the % may be the effect or the level left
Influenza A virus [3] = assay: Antiviral activity against influenza A virus H1NI (A/Weiss/43) infected in human A549 cells assessed as reduction in viral titers in supernatants at 0.25 to 100 uM; assay type: functional, organism-based; details: dose 0.25-100 µM
Influenza A virus [4] = assay: In vivo antiviral activity against influenza A virus infected in BALB/c mouse assessed as reduction in RIG-I mRNA level in lung at 25 to 100 mg/kg measured after 6 dpi; assay type: functional, organism-based; details: dose 25-100 mg/kg
Influenza A virus [5] = assay: Antiviral activity against influenza A virus infected in human A549 cells assessed as inhibition of TLR3 expression by qRT-PCR analysis; assay type: functional, organism-based
[6] = Toxicity in healthy BALB/c mouse assessed as pathological change in kidney at 25 to 100 mg/kg administered through gavage for 6 days; assay type: organism-based; details: in vivo, po, 144 h, dose 25-100 mg/kg, time 6 day
Influenza A virus [7] = assay: Inhibition of neuraminidase in Influenza A virus
Influenza A virus [8] = assay: Inhibition of influenza A virus infection induced apoptosis in MDCK cells infected with influenza virus assessed as decrease in Bax incubated for 36 hrs by Western blot analysis; assay type: functional, organism-based
Influenza A virus [9] = assay: Inhibition of influenza A virus infection induced apoptosis in MDCK cells infected with influenza virus assessed as early apoptotic cells at 25 uM incubated for 36 hrs by AnnexinV-FITC/PI staining based flow cytometry (reference value: 18.2%); assay type: functional; parameters: scale not given: the % may be the effect or the level left
[10] = Toxicity in healthy BALB/c mouse assessed as change in blood indicators at 25 to 100 mg/kg administered through gavage for 6 days; assay type: organism-based; details: in vivo, po, 144 h, dose 25-100 mg/kg, time 6 day
Influenza A virus [11] = assay: In vivo antiviral activity against influenza A virus infected in BALB/c mouse assessed as reduction in IRF3 mRNA level in lung at 25 to 100 mg/kg measured after 6 dpi; assay type: functional, organism-based; details: dose 25-100 mg/kg
Influenza A virus [12] = assay: Inhibition of influenza A virus infection induced apoptosis in MDCK cells infected with influenza virus assessed as viable cells at 50 uM incubated for 36 hrs by AnnexinV-FITC/PI staining based flow cytometry (reference value: 66.9%); assay type: functional
Influenza A virus [13] = assay: Antiviral activity against influenza A virus infected in human A549 cells assessed as inhibition of TNFalpha expression by qRT-PCR analysis; assay type: functional, organism-based
Influenza A virus [14] = assay: In vivo antiviral activity against influenza A virus infected in BALB/c mouse assessed as reduction in Caspase-1 mRNA level in lung at 25 to 100 mg/kg measured after 6 dpi; assay type: functional, organism-based; details: dose 25-100 mg/kg
Influenza A virus [15] = assay: In vivo antiviral activity against influenza A virus infected in BALB/c mouse assessed as reduction in lung index at 25 to 100 mg/kg; assay type: functional, organism-based; details: dose 25-100 mg/kg
[16] = Selectivity index, ratio of CC50 for dog MDCK cells to EC50 for antiviral activity against Influenza A virus […] H3N2 (A/California/2014) infected in MDCK cells; assay type: toxicity, cell-based; details: read-out: Selectivity Index
Influenza A virus [17] = assay: Inhibition of influenza A virus infection induced apoptosis in MDCK cells infected with influenza virus assessed as early apoptotic cells at 100 uM incubated for 36 hrs by AnnexinV-FITC/PI staining based flow cytometry (reference value: 18.2%); assay type: functional; parameters: scale not given: the % may be the effect or the level left
Influenza A virus [18] = assay: Antiviral activity against influenza A virus H1NI (A/Weiss/43) virus infected in dog MDCK cells assessed as viral inhibition treated after 2 hrs of viral infection measured at 72 hrs incubation by MTT assay; assay type: functional
Influenza A virus [19] = assay: Inhibition of influenza A virus infection induced apoptosis in MDCK cells infected with influenza virus assessed as necrotic cells at 100 uM incubated for 36 hrs by AnnexinV-FITC/PI staining based flow cytometry (reference value: 1.79%); assay type: functional; parameters: scale not given: the % may be the effect or the level left
Influenza A virus [20] = assay: Antiviral activity against influenza A virus infected in human A549 cells assessed as inhibition of IRF3 expression by qRT-PCR analysis; assay type: functional, organism-based
Influenza A virus [21] = assay: Inhibition of influenza A virus infection induced apoptosis in MDCK cells assessed as late apoptotic cells at 100 uM incubated for 36 hrs by AnnexinV-FITC/PI staining based flow cytometry (reference value: 0.70%); assay type: functional; parameters: scale not given: the % may be the effect or the level left
Influenza A virus [22] = assay: In vivo antiviral activity against influenza A virus infected in BALB/c mouse assessed as reduction in iNOS mRNA level in lung at 25 to 100 mg/kg measured after 6 dpi; assay type: functional, organism-based; details: dose 25-100 mg/kg
Influenza A virus [23] = assay: In vivo antiviral activity against influenza A virus infected in BALB/c mouse assessed as reduction in IAV-M2 mRNA level in lung at 25 to 100 mg/kg measured after 6 dpi; assay type: functional, organism-based; details: dose 25-100 mg/kg
Influenza A virus [24] = assay: Antiviral activity against influenza A virus infected in human A549 cells assessed as inhibition of IL-13 expression by qRT-PCR analysis; assay type: functional, organism-based
Influenza A virus [25] = assay: In vivo antiviral activity against influenza A virus infected in BALB/c mouse assessed as reduction in TLR-3 mRNA level in lung at 25 to 100 mg/kg measured after 6 dpi; assay type: functional, organism-based; details: dose 25-100 mg/kg
Influenza A virus [26] = assay: In vivo antiviral activity against influenza A virus infected in BALB/c mouse assessed as reduction in ASC mRNA level in lung at 25 to 100 mg/kg measured after 6 dpi; assay type: functional, organism-based; details: dose 25-100 mg/kg
Influenza A virus [27] = assay: Antiviral activity against influenza A virus infected in human A549 cells assessed as inhibition of IFN-beta expression by qRT-PCR analysis; assay type: functional, organism-based
Influenza A virus [28] = assay: Antiviral activity against influenza A virus infected in human A549 cells assessed as inhibition of IFN-gamma expression by qRT-PCR analysis; assay type: functional, organism-based
Influenza A virus [29] = assay: Inhibition of influenza A virus infection induced apoptosis in MDCK cells infected with influenza virus assessed as late apoptotic cells at 50 uM incubated for 36 hrs by AnnexinV-FITC/PI staining based flow cytometry (reference value: 13.2%); assay type: functional; parameters: scale not given: the % may be the effect or the level left
Influenza A virus [30] = assay: Inhibition of influenza A virus infection induced apoptosis in MDCK cells infected with influenza virus assessed as late apoptotic cells at 100 uM incubated for 36 hrs by AnnexinV-FITC/PI staining based flow cytometry (reference value: 13.2%); assay type: functional; parameters: scale not given: the % may be the effect or the level left
Influenza A virus [31] = assay: In vivo antiviral activity against influenza A virus infected in BALB/c mouse assessed as decrease in symptoms at 25 to 100 mg/kg; assay type: functional, organism-based; details: dose 25-100 mg/kg
Influenza A virus [32] = assay: In vivo antiviral activity against influenza A virus infected in BALB/c mouse assessed as reduction in apoptotic cells at 25 to 100 mg/kg measured after 6 dpi by TUNEL assay; assay type: functional, organism-based; details: dose 25-100 mg/kg
Influenza A virus [33] = assay: In vivo antiviral activity against influenza A virus infected in BALB/c mouse assessed as reduction in IAV-NP mRNA level in lung at 25 to 100 mg/kg measured after 6 dpi; assay type: functional, organism-based; details: dose 25-100 mg/kg
Influenza A virus [34] = assay: Antiviral activity against influenza A virus infected in A549 cells assessed as decrease in IAV-NP mRNA level measured after 1 to 3 days of viral infection; assay type: functional, organism-based; details: time 1-3 day

In the case of `COc1ccc2c(c1)c(-c1ccccc1)c(NS(C)(=O)=O)n2S(=O)(=O)c1ccc(C)cc1`, the EC50 (Influenza A virus [1]) is reported as 12.9 µM, the Activity (Influenza A virus [2]) is reported as 1.25% and the Activity (Influenza A virus [3]) is reported as “Active”. The Activity (Influenza A virus [4]) was “Active”, the Activity (Influenza A virus [5]) was “Active” and the Activity [6] was “Non-toxic”. The inhibition (Influenza A virus [7]) was “inactive”, the Activity (Influenza A virus [8]) was “Active” and the Activity (Influenza A virus [9]) was 17.6%. For the same compound, the Activity [10] was “Non-toxic”, the Activity (Influenza A virus [11]) was “Active” and the Activity (Influenza A virus [12]) was 85.5%. For the same compound, the Activity (Influenza A virus [13]) was “Active”, the Activity (Influenza A virus [14]) was “Active” and the Activity (Influenza A virus [15]) was “Active”. The selectivity ratio [16] was 36.5, the Activity (Influenza A virus [17]) was 3.6% and the “inhibition (INH)” value (Influenza A virus [18]) was 87.37%. For the same compound, the Activity (Influenza A virus [19]) was 1.74%, the Activity (Influenza A virus [20]) was “Active” and the Activity (Influenza A virus [21]) was 0.83%. For the same compound, the Activity (Influenza A virus [22]) was “Active”, the Activity (Influenza A virus [23]) was “Active” and the Activity (Influenza A virus [24]) was “Active”. For the same compound, the Activity (Influenza A virus [25]) was “Active”, the Activity (Influenza A virus [26]) was “Active” and the Activity (Influenza A virus [27]) was “Active”. The Activity (Influenza A virus [28]) was “Active”, the Activity (Influenza A virus [29]) was 4.07% and the Activity (Influenza A virus [30]) was 1.62%. For the same compound, the Activity (Influenza A virus [31]) was “Active; Alleviate Following Symptoms - Symptoms Of Severe Malaise, Respiratory Distress, Asthma, Messy Coat, Hunched Back, And Loss Of Appetite To Certain Extent”, the Activity (Influenza A virus [32]) was “Active” and the Activity (Influenza A virus [33]) was “Active”. The Activity (Influenza A virus [34]) was “Active”.

— ChEMBL document CHEMBL6087420, “Synthesis and pharmacodynamic evaluation of 2-aminoindole derivatives against influenza A virus in vitro/vivo” (Eur J Med Chem, 2025)
